Data on 25 compounds can be found in US11591341B2 (ALIGOS THERAPEUTICS, INC., priority 2019, dated 2023).

Where two headings read alike, the source gives them in different places. Bounds are passed on as bounds.

The subject of this test is HBV. In words: HBV-DNA Antiviral Assay Using HepG2.117 Cells (intracellular HBV DNA by qPCR). Type of test: cell-based, hepatitis B virus (genotype D). The procedure, abridged: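 HepG2.117 cells (genotype D HBV, Tet-off) were induced by doxycycline withdrawal and treated for 3 days with 9 concentrations in 4-fold dilution, 2% DMSO final. Intracellular HBV DNA was measured by qPCR against a standard curve, with ATPlite viability read in parallel. EC50, EC90 and CC50 came from fits against the DMSO control.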
For orientation: In qPCR the cycle at which signal appears reflects the starting amount.

One may read the EC50 as the concentration needed to bring the measured effect to its halfway point. `O=C(NCc1ccccc1-n1cc(F)cn1)c1c2n(c(=O)n1-c1ccc(OCC(F)(F)F)cc1)CCN(C(=O)c1ccc(Br)c(Cl)c1)C2` [Example 327, 7-(4-bromo-3-chloro-benzoyl)-N-[[2-(4-fluoropyrazol-1-yl)phenyl]methyl]-3-oxo-2-[4-(2,2,2-trifluoroethoxy)phenyl]-6,8-dihydro-5H-imidazo[1,5-a]pyrazine-1-carboxamide] registered an EC50 (Hepatitis B virus, HepG2.117) of less than 100 nM. For the compound `COc1ccc(-n2c(C(=O)NC(c3ccccc3)C3CC3)c3n(c2=O)CCN(C(=O)c2ccc(Br)c(Cl)c2)C3)cc1` (racemic) [Example 176, 7-(4-bromo-3-chloro-benzoyl)-2-(4-methoxyphenyl)-3-oxo-N-[rac-(S)-cyclopropyl(phenyl)methyl]-6,8-dihydro-5H-imidazo[1,5-a]pyrazine-1-carboxamide], the EC50 (Hepatitis B virus, HepG2.117) lay in the range of 100 to 500 nM. The same measure, in the same setting: for `Cc1nc2cc(-n3c(C(=O)NCc4ccccc4)c4n(c3=O)CCN(C(=O)c3ccc(Br)c(Cl)c3)C4)ccc2o1` [Example 418, N-benzyl-7-(4-bromo-3-chloro-benzoyl)-2-(2-methyl-1,3-benzoxazol-5-yl)-3-oxo-6,8-dihydro-5H-imidazo[1,5-a]pyrazine-1-carboxamide] the value was 100 to 500 nM; for `O=C(NCc1ccccc1)c1c2n(c(=O)n1-c1ccc3nonc3c1)CCN(C(=O)c1ccc(Br)c(Cl)c1)C2` [Example 389, 2-(2,1,3-benzoxadiazol-5-yl)-N-benzyl-7-(4-bromo-3-chloro-benzoyl)-3-oxo-6,8-dihydro-5H-imidazo[1,5-a]pyrazine-1-carboxamide], 500 to 5000 nM. Still for that read-out and setting: the same measure for `COc1ccc(-n2c(C(=O)NCc3ccccc3)c3n(c2=O)CCN(c2ncnc4cc(Cl)ccc24)C3)cc1` [Example 117, N-benzyl-7-(7-chloroquinazolin-4-yl)-2-(4-methoxyphenyl)-3-oxo-6,8-dihydro-5H-imidazo[1,5-a]pyrazine-1-carboxamide]: more than 5000 nM; for `O=C(c1ccc(Br)c(Cl)c1)N1CCn2c(c3n(c2=O)C[C@@H](O)CN(Cc2ccccc2)C3=O)C1` (stereo in doubt) [Example 175, rac-(11S)-13-benzyl-4-(4-bromo-3-chloro-benzoyl)-11-hydroxy-4,7,9,13-tetrazatricyclo[7.5.0.0^2,7]tetradec-1-ene-8.14-dione]: 500 to 5000 nM.

`Cn1cnc2c(CNC(=O)c3c4n(c(=O)n3-c3ccc(OC5CC5)cc3)CCN(C(=O)c3ccc(Br)c(Cl)c3)C4)cccc21` [Example 399, 7-(4-bromo-3-chloro-benzoyl)-2-[4-(cyclopropoxy)phenyl]-N-[(1-methylbenzimidazol-4-yl)methyl]-3-oxo-6,8-dihydro-5H-imidazo[1,5-a]pyrazine-1-carboxamide] registered an EC50 (Hepatitis B virus, HepG2.117) of 100 to 500 nM.

Regarding `O=C(NCc1ccc(OC(F)(F)F)cc1F)c1c2n(c(=O)n1-c1ccc(OC3CC3)cc1)CCN(C(=O)c1ccc(Br)c(Cl)c1)C2` [Example 296, 7-(4-bromo-3-chloro-benzoyl)-2-[4-(cyclopropoxy)phenyl]-N-[[2-fluoro-4-(trifluoromethxoy)phenyl]methyl]-3-oxo-6,8-dihydro-5H-imidazo[1,5-a]pyrazine-1-carboxamide], where the note is “Hepatitis B virus, HepG2.117”, the EC50 is 500 to 5000 nM.

In turn, `CC(C)Oc1ccc(-n2c(C(=O)N[C@@H](C)c3ccccc3)c3n(c2=O)CCN(C(=O)c2ccc(Br)c(Cl)c2)C3)cc1` (racemic) [Example 119, 7-(4-bromo-3-chloro-benzoyl)-2-(4-isopropoxyphenyl)-3-oxo-N-[rac-(1S)-1-phenylethyl]-6,8-dihydro-5H-imidazo[1,5-a]pyrazine-1-carboxamide] came in with an EC50 (Hepatitis B virus, HepG2.117) of 100 to 500 nM. On the same count and under the same terms, the same measure for `O=C(NCc1ccccc1-c1ncco1)c1c2n(c(=O)n1-c1ccc(OC3CC3)cc1)CCN(C(=O)c1ccc(Br)c(Cl)c1)C2` [Example 366, 7-(4-bromo-3-chloro-benzoyl)-2-[4-(cyclopropoxy)phenyl]-N-[(2-oxazol-2-ylphenyl)methyl]-3-oxo-6,8-dihydro-5H-imidazo[1,5-a]pyrazine-1-carboxamide]: less than 100 nM. On the same count and under the same terms, for `C[C@H]1CN(Cc2ccccc2)C(=O)c2c3n(c(=O)n2C1)CCN(C(=O)c1ccc(Br)c(Cl)c1)C3` (stereo in doubt) [Example 98, rac-((1S)-13-benzyl-4-(4-bromo-3-chloro-benzoyl)-11-methyl-4,7,9,13-tetrazatricyclo[7.5.0.0^2,7]tetradec-1-ene-8.14-dione] the value was 500 to 5000 nM; for `C[C@@H](NC(=O)c1c2n(c(=O)n1-c1ccc(OCC(F)(F)F)cc1)CCN(C(=O)c1ccc(Br)c(Cl)c1)C2)c1cccc2nccnc12` (stereo in doubt) [Example 385, 7-(4-bromo-3-chloro-benzoyl)-3-oxo-N-[rac-(1R)-1-quinoxalin-5-ylethyl]-2-[4-(2,2,2-trifluoroethoxy)phenyl]-6,8-dihydro-5H-imidazo[1,5-a]pyrazine-1-carboxamide], 100 to 500 nM. Same read-out and setting: for `O=C(NCc1ccccc1)c1c2n(c(=O)n1-c1cccc(F)c1)CCN(C(=O)c1ccc(Br)c(Cl)c1)C2` [Example 23, N-benzyl-7-(4-bromo-3-chloro-benzoyl)-2-(3-fluorophenyl)-3-oxo-6,8-dihydro-5H-imidazo[1,5-a]pyrazine-1-carboxamide] the value was 500 to 5000 nM; for `O=C1COc2cc(-n3c(C(=O)NCc4ccccc4)c4n(c3=O)CCN(C(=O)c3ccc(Br)c(Cl)c3)C4)ccc2N1` [Example 404, N-benzyl-7-(4-bromo-3-chloro-benzoyl)-3-oxo-2-(3-oxo-4H-1,4-benzoxazin-7-yl)-6,8-dihydro-5H-imidazo[1,5-a]pyrazine-1-carboxamide], 500 to 5000 nM; for `O=C(NCc1ccccc1)c1c2n(c(=O)n1-c1ccc(Cl)cc1)CCN(C(=O)c1ccc(Br)c(Cl)c1)C2` [Example 26, N-benzyl-7-(4-bromo-3-chloro-benzoyl)-2-(4-chlorophenyl)-3-oxo-6,8-dihydro-5H-imidazo[1,5-a]pyrazine-1-carboxamide], 500 to 5000 nM. Where the note is “Hepatitis B virus, HepG2.117”, `CC(C)(Oc1ccc(CNC(=O)c2c3n(c(=O)n2-c2ccc(OCC(F)(F)F)cc2)CCN(C(=O)c2ccc(Br)c(Cl)c2)C3)c(F)c1)C(N)=O` [Example 428, N-[[4-(2-amino-1,1-dimethyl-2-oxo-ethoxy)-2-fluoro-phenyl]methyl]-7-(4-bromo-3-chloro-benzoyl)-3-oxo-2-[4-(2,2,2-trifluoroethoxy)phenyl]-6,8-dihydro-5H-imidazo[1,5-a]pyrazine-1-carboxamide] returned an EC50 of 100 to 500 nM. The same measure, in the same setting: for `COc1ccc(CN2Cc3c4n(c(=O)n3C[C@H](O)C2)CCN(C(=O)c2ccc(Br)c(Cl)c2)C4)c(F)c1` (stereo in doubt) [Example 288, rac-(11R)-4-(4-bromo-3-chloro-benzoyl-13-[(2-fluoro-4-methoxy-phenyl)methyl]-11-hydroxy-4,7,9,13-tetrazatricyclo[7.5.0.0^2,7]tetradec-1-ene-8,14-dione] the value was 100 to 500 nM; for `C[C@H](NC(=O)c1c2n(c(=O)n1-c1ccc(OC3CC3)cc1)CCN(C(=O)c1ccc(Br)c(Cl)c1)C2)c1ccc(OC2COC2)cc1F` (stereo in doubt) [Example 347, 7-(4-bromo-3-chloro-benzoyl)-2-[4-(cyclopropoxy)phenyl]-3-oxo-N-[rac-(1S)-1-[2-fluoro-4-(oxetan-3-yloxy)phenyl]ethyl]-6,8-dihydro-5H-imidazo[1,5-a]pyrazine-1-carboxamide], 100 to 500 nM; for `COc1ccc(-n2c(C(=O)NCc3ccc(F)cc3C)c3n(c2=O)CCN(C(=O)c2ccc(Br)c(Cl)c2)C3)cc1` [Example 116, 7-(4-bromo-3-chloro-benzoyl)-N-[(4-fluoro-2-methyl-phenyl)methyl]-2-(4-methoxyphenyl)-3-oxo-6,8-dihydro-5H-imidazo[1,5-a]pyrazine-1-carboxamide], 100 to 500 nM.

With `CC(C)Oc1ccc(-n2c(C(=O)NCc3ccc(C(F)F)cc3)c3n(c2=O)CCN(C(=O)c2ccc(Br)c(Cl)c2)C3)cc1` [Example 243, 7-(4-bromo-3-chloro-benzoyl)-N-[[4-(difluoromethyl)phenyl]methyl]-2-(4-isopropoxyphenyl)-3-oxo-6,8-dihydro-5H-imidazo[1,5-a]pyrazine-1-carboxamide], the EC50 (Hepatitis B virus, HepG2.117) fell in the range of 100 to 500 nM. On to `COCCOc1ccc(-n2c(C(=O)NCc3ccccc3)c3n(c2=O)CCN(C(=O)c2ccc(Br)c(Cl)c2)C3)cc1` [Example 250, N-benzyl-7-(4-bromo-3-chloro-benzoyl)-2-[4-(2-methoxyethoxy)phenyl]-3-oxo-6,8-dihydro-5H-imidazo[1,5-a]pyrazine-1-carboxamide], for which, under “Hepatitis B virus, HepG2.117”, the EC50 is 100 to 500 nM. Same read-out and setting: for `O=C(NCc1ccc(OC(F)(F)F)cc1F)c1c2n(c(=O)n1-c1ccc(OCC(F)(F)F)cc1)CCN(C(=O)c1ccc(Br)c(Cl)c1)C2` [Example 284, 7-(4-bromo-3-chloro-benzoyl)-N-[[2-fluoro-4-(trifluoromethoxy)phenyl]methyl]-3-oxo-2-[4-(2,2,2-trifluoroethoxy)phenyl]-6,8-dihydro-5H-imidazo[1,5-a]pyrazine-1-carboxamide] the value was 500 to 5000 nM. Still for that read-out and setting: for `C[C@H](NC(=O)c1c2n(c(=O)n1-c1ccccc1)CCN(C(=O)c1ccc(Br)c(Cl)c1)C2)c1ccccc1` (stereo in doubt) [Example 38, 7-(4-bromo-3-chloro-benzoyl)-3-oxo-2-phenyl-N-[rac-(1S)-1-phenylethyl]-6,8-dihydro-5H-imidazo[1,5-a]pyrazine-1-carboxamide] the value was 500 to 5000 nM. For the compound `COc1ccc(-n2c(-c3ncccc3Cc3ccccc3)c3n(c2=O)CCN(C(=O)c2ccc(Br)c(Cl)c2)C3)cc1` [Example 308, 1-(3-benzyl-2-pyridyl)-7-(4-bromo-3-chloro-benzoyl)-2-(4-methoxyphenyl)-6,8-dihdyro-5H-imidazo[1,5-a]pyrazin-3-one], where the note is “HBV DNA inhibition, HepG2.117 cells, intracellular HBV DNA by qPCR (Table 4), read-out: EC50”, the EC50 lay in the range of 500 to 5000 nM.

In turn, `COc1ccc(CNC(=O)c2c3n(c(=O)n2-c2ccccc2)CCN(C(=O)c2ccc(Br)c(Cl)c2)C3)cc1OC` [Example 32, 7-(4-bromo-3-chloro-benzoyl)-N-[(3,4-dimethoxyphenyl)methyl]-3-oxo-2-phenyl-6,8-dihydro-5H-imidazo[1,5-a]pyrazine-1-carboxamide] registered an EC50 (Hepatitis B virus, HepG2.117) of 100 to 500 nM.
